{
  "source": "patent US4455290A",
  "about": "“Inhibition of fibrin polymerization by a peptide isolated from fibrin Fragment D1” (Research Corporation, priority 1981, dated 1984)",
  "key": {"[1]": {"target": "T1, thrombin fibrin monomer (Homo sapiens, UniProt P02671+P02675+P02679)", "T1 construct": "Thrombin cleaves the bonds Aα16 Arg-17 Gly and Bβ14 Arg-15 Gly, releasing two molecules of fibrinopeptide A and two molecules of fibrinopeptide B; made in house; host or cells: not recombinant: made from fibrinogen by treatment with thrombin", "T1 sequence (P02671 36-629 isoform P02671-2)": "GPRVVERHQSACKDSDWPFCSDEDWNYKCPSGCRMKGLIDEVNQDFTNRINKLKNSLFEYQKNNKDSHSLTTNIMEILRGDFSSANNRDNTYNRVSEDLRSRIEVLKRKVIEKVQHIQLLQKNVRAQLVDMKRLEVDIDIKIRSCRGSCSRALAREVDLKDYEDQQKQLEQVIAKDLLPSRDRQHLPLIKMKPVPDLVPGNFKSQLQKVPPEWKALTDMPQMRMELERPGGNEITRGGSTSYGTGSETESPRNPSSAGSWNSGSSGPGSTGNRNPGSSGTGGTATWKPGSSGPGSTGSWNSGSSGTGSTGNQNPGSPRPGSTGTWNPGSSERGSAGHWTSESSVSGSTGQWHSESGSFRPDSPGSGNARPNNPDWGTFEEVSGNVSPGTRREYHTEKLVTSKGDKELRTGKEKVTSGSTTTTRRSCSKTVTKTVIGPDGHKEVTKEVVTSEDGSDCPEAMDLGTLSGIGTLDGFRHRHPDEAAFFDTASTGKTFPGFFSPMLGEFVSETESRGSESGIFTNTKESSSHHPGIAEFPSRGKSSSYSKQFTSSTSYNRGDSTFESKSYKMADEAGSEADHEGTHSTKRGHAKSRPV", "T1 sequence (P02675 45-491)": "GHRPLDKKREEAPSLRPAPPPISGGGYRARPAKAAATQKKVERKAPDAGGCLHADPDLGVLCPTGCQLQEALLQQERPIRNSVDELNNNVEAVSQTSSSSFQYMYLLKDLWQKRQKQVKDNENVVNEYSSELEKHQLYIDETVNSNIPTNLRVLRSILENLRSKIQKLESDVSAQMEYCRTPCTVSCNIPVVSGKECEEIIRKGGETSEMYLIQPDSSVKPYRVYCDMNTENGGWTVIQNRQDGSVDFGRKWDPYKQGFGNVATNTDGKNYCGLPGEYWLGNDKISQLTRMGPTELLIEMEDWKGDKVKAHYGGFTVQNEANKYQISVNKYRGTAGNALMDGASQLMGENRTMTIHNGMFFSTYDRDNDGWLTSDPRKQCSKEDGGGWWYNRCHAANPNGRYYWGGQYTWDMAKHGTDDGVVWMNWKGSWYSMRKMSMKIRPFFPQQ", "T1 sequence (P02679 27-437 isoform P02679-2)": "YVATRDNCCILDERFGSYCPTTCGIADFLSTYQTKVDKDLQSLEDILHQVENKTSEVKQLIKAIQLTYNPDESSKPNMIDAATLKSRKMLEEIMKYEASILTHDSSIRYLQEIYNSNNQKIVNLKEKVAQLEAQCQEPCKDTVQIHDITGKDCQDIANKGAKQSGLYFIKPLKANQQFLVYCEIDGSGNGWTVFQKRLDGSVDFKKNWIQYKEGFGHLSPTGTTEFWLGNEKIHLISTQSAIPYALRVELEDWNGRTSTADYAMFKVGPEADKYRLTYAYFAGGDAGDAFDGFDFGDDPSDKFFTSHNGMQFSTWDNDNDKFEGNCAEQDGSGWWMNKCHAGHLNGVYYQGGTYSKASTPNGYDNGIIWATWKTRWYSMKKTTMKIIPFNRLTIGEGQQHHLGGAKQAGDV", "assay": "Sephadex gel equilibrium binding, thrombin fibrin monomer", "settings": "15 experiments, mean and standard deviation", "method": "Acta 133, 376-379 (1979).\nThe purification of NDSK involves incubation of fibrinogen in cyanogen bromide in the presence of 70% formic acid. This treatment may alter the binding sites. Therefore, an attempt was made to reproduce the data using fibrin monomer instead of thrombin-treated NDSK. A major difficulty, the self-polymerization of fibrin monomer, was overcome by using high molar ratios of D1 Peptide to fibrin monomer. However, in this situation the concentration of D1 Peptide could be varied only over a small range of concentrations. D1 Peptide was added to the Sephadex gel equilibrium system and incubated for 10 min., then soluble fibrin monomer was added in a molar excess of D1 Peptide to fibrin monomer of 100-1000 fold. Under these conditions the lag time in the fibrin monomer polymerization was more than 30 min.\nIn experiments using thrombin fibrin monomer the number of binding sites for D1 Peptide was 1.82±0.26 (15 experiments, mean and standard deviation). For batroxobin fibrin monomer the number of binding sites was 1.91±0.24 (17 experiments, mean and standard deviation)."}, "[2]": {"target": "T1, thrombin fibrin monomer", "assay": "Inhibition of fibrin monomer polymerization (absorbance at 350 nm), thrombin fibrin monomer", "format": "biochemical", "settings": "molar excess of D1 Peptide to fibrin monomer of 100-1000 fold; Sephadex gel equilibrium system; kind of fibrin monomer not stated", "method": "Fibrin monomer was prepared according to the method of Belitser et al, Biochem. Biophys. Acta 154, 367-375 (1968) using either thrombin or batroxobin (an enzyme from the venom of Bothrops atrox). The polymerization of fibrin monomer which was formed by batroxobin (lacking fibrinopeptide A) or by thrombin (lacking fibrinopeptides A and B) was inhibited by D1 Peptide. Polymerization was measured spectrophotometrically at 350 nm as has been described in Budzynski, Biochem. Biophys. Acta 584, 284-287 (1979). […] At zero time the recorder was started and 0.01 ml of fibrin monomer (1.5 mg/ml in 0.02M acetic acid) was added, the cells were inverted, and the increase in absorbance at 350 nm was measured continuously for 15 min or until plateau levels were reached. For batroxobin fibrin monomer 0.15 ml of buffer or buffer containing D1 Peptide was mixed with 0.05 ml of batroxobin fibrin monomer (1.5 mg/ml in 0.02M acetic acid). The initial rate of polymerization was calculated from the slope of the steepest part of the curve and expressed as the increase in absorbance per min (A350 ·min^-1)."}},
  "note": "Peptide text beside a SMILES is read from it.",
  "data": [
    {"smiles": "CC[C@H](C)[C@H](NC(=O)[C@H](CCCCN)NC(=O)[C@H](CCSC)NC(=O)[C@@H](NC(=O)[C@@H](NC(=O)[C@H](CCCCN)NC(=O)[C@H](CCCCN)NC(=O)[C@H](CCSC)NC(=O)[C@H](CO)NC(=O)[C@H](Cc1ccc(O)cc1)NC(=O)[C@H](Cc1c[nH]c2ccccc12)NC(=O)[C@H](CCCNC(=N)N)NC(=O)[C@@H](N)[C@@H](C)O)[C@@H](C)O)[C@@H](C)O)C(=O)N[C@H](C(=O)N1CCC[C@H]1C(=O)N[C@@H](Cc1ccccc1)C(=O)N[C@@H](CC(N)=O)C(=O)N[C@@H](CCCNC(=N)N)C(=O)N[C@@H](CC(C)C)C(=O)N[C@H](C(=O)N[C@H](C(=O)NCC(=O)N[C@@H](CCC(=O)O)C(=O)NCC(=O)N[C@@H](CCC(N)=O)C(=O)N[C@@H](CCC(N)=O)C(=O)N[C@@H](Cc1c[nH]cn1)C(=O)N[C@@H](Cc1c[nH]cn1)C(=O)N[C@@H](CC(C)C)C(=O)NCC(=O)NCC(=O)N[C@@H](C)C(=O)N[C@@H](CCCCN)C(=O)N[C@@H](CCC(N)=O)C(=O)N[C@@H](C)C(=O)NCC(=O)N[C@@H](CC(=O)O)C(=O)N[C@H](C(=O)O)C(C)C)[C@@H](C)CC)[C@@H](C)O)[C@@H](C)CC", "note": "[D1 Peptide] (H-TRWYSMKKTTMKIIPFNRLTIGEGQQHHLGGAKQAGDV-OH)", "values": [
      {"measurement": "number of binding sites for D1 Peptide", "setting": "[1]", "result": "1.82±0.26"},
      {"measurement": "lag time in the fibrin monomer polymerization", "setting": "[2]", "result": "more than 30 min"}
    ]}
  ]
}
